According to publication PMC9989471, “The Key Roles of Mycobacterium tuberculosis FadD23 C-terminal Domain in Catalytic Mechanisms” (Frontiers in Microbiology, 2023):

Key:
FadD23 [1] = target: T1, FadD23 (Mycobacterium tuberculosis, UniProt P9WQ47); test: SPR; also crystal structure with AMP-PNP, MS, DSF and hydroxamate-MesG assay; format: binding
T1 construct: full-length

CCCCCCCCCCCC(=O)O = test: purified protein; conditions: ATP, Mg2+
FadD23 [2] = target: T1, FadD23; test: crystal structure ([…] Å), with palmitic acid bound; format: binding
FadD23 [3] = target: T1, FadD23; test: crystal structure ([…] Å), formed from ATP and palmitic acid; format: binding
FadD23 [4] = target: T1, FadD23; test: SPR; format: binding

T1 sequence (P9WQ47 whole entry): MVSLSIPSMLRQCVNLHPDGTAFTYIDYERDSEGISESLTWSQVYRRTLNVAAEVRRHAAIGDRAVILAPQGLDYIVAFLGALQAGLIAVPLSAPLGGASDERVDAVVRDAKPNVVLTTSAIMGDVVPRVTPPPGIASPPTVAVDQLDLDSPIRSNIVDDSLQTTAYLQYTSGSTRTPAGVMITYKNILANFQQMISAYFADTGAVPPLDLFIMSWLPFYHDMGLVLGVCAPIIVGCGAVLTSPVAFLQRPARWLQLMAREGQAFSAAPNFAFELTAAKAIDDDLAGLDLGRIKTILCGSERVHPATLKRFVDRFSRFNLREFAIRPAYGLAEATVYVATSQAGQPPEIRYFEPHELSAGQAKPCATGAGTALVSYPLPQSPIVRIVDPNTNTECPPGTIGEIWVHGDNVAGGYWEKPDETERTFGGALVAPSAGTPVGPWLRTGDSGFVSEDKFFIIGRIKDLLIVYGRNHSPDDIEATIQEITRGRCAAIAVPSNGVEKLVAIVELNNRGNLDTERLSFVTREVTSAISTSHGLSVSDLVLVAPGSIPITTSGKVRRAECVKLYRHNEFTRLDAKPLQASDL

CCCCCCCCCCCCCCCC(=O)O [palmitic acid]
Kd (FadD23 [1]): 34.5 µM

FadD23 (Mycobacterium tuberculosis H37Rv)
Km (CCCCCCCCCCCC(=O)O): 33.56 ± 5.40 µM | Vmax (CCCCCCCCCCCC(=O)O): 0.00108 µmol/min | kcat (CCCCCCCCCCCC(=O)O): 0.00239 s⁻¹ | kcat/Km (CCCCCCCCCCCC(=O)O): 71.2 M⁻¹ s⁻¹

Nc1ncnc2c1ncn2[C@@H]1O[C@H](CO[P@](=O)(O)O[P@](=O)(O)NP(=O)(O)O)[C@@H](O)[C@H]1O [AMP-PNP]
crystal structure (2.25 Å), with palmitic acid bound (FadD23 [2]): In the AMP-PNP-FadD23 complex, the O27 of AMP-PNP interacted with NE of Arg460 through hydrogen bond

CCCCCCCCCCCCCCCC(=O)OP(=O)(O)OC[C@H]1O[C@@H](n2cnc3c(N)ncnc32)[C@H](O)[C@@H]1O [AMP-C16, hexadecanoyl adenylate]
crystal structure (2.68 Å), formed from ATP and palmitic acid (FadD23 [3]): FadD23 catalyzed the hydrolysis of ATP and connected AMP with palmitic acid to generate a molecule of AMP-C16.

Nc1ncnc2c1ncn2[C@@H]1O[C@H](COP(=O)(O)OP(=O)(O)OP(=O)(O)O)[C@@H](O)[C@H]1O [ATP]
Kd (FadD23 [4]): ~1 µM
